These results are taken from patent publication US11225505B2, “Antimicrobial polymyxin derivative compounds” (MONASH UNIVERSITY, priority 2015, dated 2022).

The structures appear in SMILES notation. In brackets after ≈: the same amount, converted by molar mass. Where a SMILES comes first, the peptide text is derived from it. Bridges are numbered along the chain shown (N, C = ends). [ ]: non-standard residue; d: D form. The star is where a group is joined. X41 = O=C(c1cc2cc(F)c(F)cc2[nH]1)*; X47 = O=C(c1cc2cc(Cl)ccc2[nH]1)*; X6 = Cn1c(C(=O)*)cc2cc(Cl)ccc21; Dab = NCC[C@H](N)C(=O)O; Abu = CC[C@H](N)C(=O)O; Dap = NC[C@H](N)C(=O)O

Type in all cases: cell-based
Test [1] deals with Acinetobacter baumannii ATCC 17978. The note with it: ATCC 17978. An outline of the steps:
(§1)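 The read-out is the MIC, obtained by CLSI broth microdilution (M100-S24) in cation-adjusted Mueller-Hinton broth. The compounds were lipopeptide TFA salts, and polymyxin B sulphate served as control.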

For test [2], the system named is Acinetobacter baumannii FADDI-AB034. The conditions noted are these: FADDI-AB034. In short, it runs like this:
as §1

Test [3] has as its system Enterobacter cloacae FADDI-EC001. The note with it: FADDI-EC001. In short, it runs like this: (§2)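 Broth microdilution MIC per CLSI in cation-adjusted Mueller-Hinton broth, lipopeptides tested as TFA salts. Polymyxin B sulphate served as control.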
Test [4] deals with Enterobacter cloacae FADDI-EC003. The note with it: FADDI-EC003. In short, it runs like this:
as §1

The subject of test [5] is Enterobacter cloacae FADDI-EC006. The note with it: FADDI-EC006. In short, it runs like this: as §1
The test system of test [6] is Klebsiella pneumoniae FADDI-KP022. The conditions noted are these: FADDI-KP022. In short, it runs like this:
as §1

For test [7], the system named is Klebsiella pneumoniae FADDI-KP032. The note with it: FADDI-KP032. In short, it runs like this:
as §1

For test [8], the system named is Klebsiella pneumoniae Kp BM1. The note with it: Kp BM1. In short, it runs like this:
as §2

Test [9] has as its system Pseudomonas aeruginosa ATCC 27853. The conditions noted are these: ATCC 27853. An outline of the steps:
as §1

For test [10], the system named is Pseudomonas aeruginosa FADDI-PA01. The note with it: FADDI-. An outline of the steps:
as §1

In test [11] the test system is Pseudomonas aeruginosa FADDI-PA022. The note with it: FADDI-PA022. An outline of the steps:
as §1

Test [12] deals with Pseudomonas aeruginosa FADDI-PA038. The conditions noted are these: FADDI-PA038. In short, it runs like this: as §1
Test [13] relates to Acinetobacter baumannii FADDI-AB030. The test can be described thus: microbe, parasite or virus in culture. The conditions noted are these: FADDI-AB030. An outline of the steps:
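Broth microdilution MIC in cation-adjusted Mueller-Hinton broth per CLSI M100-S24; lipopeptides tested as TFA salts. FADDI-AB030 is a multidrug-resistant clinical isolate. Polymyxin B sulphate served as control.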

Regarding `CC[C@@H]1NC(=O)[C@@H](CC(C)C)NC(=O)[C@H](CCN)NC(=O)[C@@H](NC(=O)[C@H](CN)NC(=O)[C@@H](NC(=O)[C@H](CCN)NC(=O)c2cc3cc(Cl)ccc3n2C)[C@@H](C)O)CCNC(=O)[C@H]([C@@H](C)O)NC(=O)[C@H](CCN)NC(=O)[C@H](CCN)NC1=O` [Compound 58] (X6-[Dab]T[Dap][Dab][Dab][dL][Abu][Dab][Dab]T; lactam 4-C), the Minimum inhibitory concentration in [1] was 0.25 µg/mL (≈ 0.212 µM); in [2] it was 0.5 µg/mL (≈ 0.424 µM); in [3], 1 µg/mL (≈ 0.848 µM); in test [4] it was below 0.125 µg/mL; in test [5], 0.5 µg/mL (≈ 0.424 µM); in test [6], below 0.125 µg/mL. Further, the Minimum inhibitory concentration stood at 0.5 µg/mL (≈ 0.424 µM) in test [7]; 0.25 µg/mL (≈ 0.212 µM) in test [8]; 0.5 µg/mL (≈ 0.424 µM) in test [9]; 0.5 µg/mL (≈ 0.424 µM) in test [10]; 0.5 µg/mL (≈ 0.424 µM) in test [11]; 2 µg/mL (≈ 1.7 µM) in [12]. Also, the Minimum inhibitory concentration in test [13] stood at 0.25 µg/mL (≈ 0.212 µM).

Consider `CC[C@@H]1NC(=O)[C@@H](CC(C)C)NC(=O)[C@H](CCN)NC(=O)[C@@H](NC(=O)[C@H](CN)NC(=O)[C@@H](NC(=O)[C@H](CCN)NC(=O)c2cc3cc(Cl)ccc3[nH]2)[C@@H](C)O)CCNC(=O)[C@H]([C@@H](C)O)NC(=O)[C@H](CCN)NC(=O)[C@H](CCN)NC1=O` [Compound 59] (X47-[Dab]T[Dap][Dab][Dab][dL][Abu][Dab][Dab]T; lactam 4-C), for which the Minimum inhibitory concentration in test [1] was 0.5 µg/mL (≈ 0.429 µM); in test [2], below 0.125 µg/mL; in test [3], 0.25 µg/mL (≈ 0.215 µM); in [4], 0.25 µg/mL (≈ 0.215 µM); in test [5], 0.5 µg/mL (≈ 0.429 µM); in [6] it was below 0.125 µg/mL. Further, the Minimum inhibitory concentration in [7] came out at 0.25 µg/mL (≈ 0.215 µM); in [8], 0.5 µg/mL (≈ 0.429 µM); in test [9], 0.5 µg/mL (≈ 0.429 µM); in test [10], 0.25 µg/mL (≈ 0.215 µM); in test [11], 0.5 µg/mL (≈ 0.429 µM); in [12], 1 µg/mL (≈ 0.859 µM). Moreover, the Minimum inhibitory concentration in [13] was 0.5 µg/mL (≈ 0.429 µM).

In the case of `CC[C@@H]1NC(=O)[C@@H](CC(C)C)NC(=O)[C@H](CCN)NC(=O)[C@@H](NC(=O)[C@H](CN)NC(=O)[C@@H](NC(=O)[C@H](CCN)NC(=O)c2cc3cc(F)c(F)cc3[nH]2)[C@@H](C)O)CCNC(=O)[C@H]([C@@H](C)O)NC(=O)[C@H](CCN)NC(=O)[C@H](CCN)NC1=O` [Compound 60] (X41-[Dab]T[Dap][Dab][Dab][dL][Abu][Dab][Dab]T; lactam 4-C), the Minimum inhibitory concentration in [1] came out at 1 µg/mL (≈ 0.857 µM); in test [2], 0.5 µg/mL (≈ 0.429 µM); in test [3] it was 0.25 µg/mL (≈ 0.214 µM); in [4] it was 0.25 µg/mL (≈ 0.214 µM); in test [5] it was 1 µg/mL (≈ 0.857 µM); in test [6], 0.5 µg/mL (≈ 0.429 µM). Besides, the Minimum inhibitory concentration came to 0.5 µg/mL (≈ 0.429 µM) in [7]; 0.5 µg/mL (≈ 0.429 µM) in [8]; 0.5 µg/mL (≈ 0.429 µM) in [9]; 0.5 µg/mL (≈ 0.429 µM) in test [10]; 0.5 µg/mL (≈ 0.429 µM) in test [11]; 1 µg/mL (≈ 0.857 µM) in test [12]. The compound further gave a Minimum inhibitory concentration in test [13] of 0.5 µg/mL (≈ 0.429 µM).
